Experiments:
[1] = system: BT-549 (breast); assay: Cell proliferation assay (CellTiter-Glo Luminescent); type: cell-based; conditions: Homo sapiens, Complete media
[2] = system: H1299 (Non-small cell lung carcinoma cell line); assay: Cell proliferation index assay, Assay Protocol II (Fluofarma, flow cytometry); type: cell-based; conditions: Homo sapiens, NCI-H1299
Method: In a second assay to determine the inhibition of cell proliferation by a test compound, cell proliferation of the cell line of interest was measured by a cell proliferation index assay using Fluofarma (www.fluofarma.com) based technology. This assay is based on the dilution rate of a fluorescent membrane marker, which is a direct function of the number of cell divisions. Briefly, the assay is performed by loading the cells with a non-toxic fluorescent phospholipid analog before the seeding. […] Flow cytometry analysis of the fluorescent probe is performed after the loading of the cells both prior to, as well as after treatment with various concentrations of the test compound. The dilution rate of the fluorescent probe at the single cell level is directly correlated to the number of cell divisions.

[3] = biological target: T1, PKM2, human recombinant (Homo sapiens, UniProt P14618); assay: PKM2 enzymatic activity assay (Kinase-Glo Plus luminescence); type: biochemical; conditions: for AC50: 0.1 nM PKM2, 0.1 mM ADP, 0.5 mM PEP, 1 hour, room temperature, read-out: AC50 group; for Emax: 1 h, maximum percent activity, luminescence without compound = 0% activity, read-out: Max activity Group;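 as to Max activity Group: percent increase over no-compound signal after subtracting the no-PKM2 background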
T1 construct: purchased BPS 50295
How it was run: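 Activation assay: 0.1 nM recombinant human PKM2 with 0.1 mM ADP and 0.5 mM PEP in imidazole buffer pH 7.2, 1 hour at room temperature, in duplicate; ATP produced read by Kinase-Glo Plus luminescence. % activity relative to no-compound and no-enzyme wells; AC50 as half-maximal activation from sigmoidal fit; FBP 0.5 mM positive control.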

[4] = system: H1299 (lung); assay: Cell proliferation assay (CellTiter-Glo Luminescent); type: cell-based, human; conditions: 96 hr
Method: 1. Cells were grown according to the ATCC conditions. 2. Cell feeding (passaging) was timed such that the cells were in exponential growth phase at the time of the assay.
3. On day 1, H1299 cells were counted. Cell numbers were adjusted to the desired cell concentration in Media 1: RPMI 1640 Invitrogen 11879020 (that contained no glucose or pyruvate) with 10% FBS, and 1 mM D-Glucose (4 μl of 2.5 M D-glucose G8769 was added in preparing 10 ml RPMI media with 1 mM glucose). A 200 μl of H1299 cell suspension was added to appropriate wells in the 96-well plates, and incubated at 37° C. in the CO2 cell incubator under normal growing conditions for overnight. 4. On day 2, a 100 mM stock concentration of test compounds in 100% DMSO was prepared and serially diluted with 100% DMSO to 33.33 mM, 11.11 mM, and 3.7 mM. A 1:1000 dilution was made to each concentration in media 1 (yielding 0.1% final DMSO concentration). The media was aspirated completely from the cell plate. Each 100 μl of the following solutions (100 μM, 33.33 μM, 11.11 μM, and 3.7 μM) was added to the cells. DMSO in a final concentration of 0.1%, and media without DMSO, were added to the cells and used as a negative control. Empty wells around the experimental wells were filled with PBS. The plate was sealed with parafilm to reduce evaporation. 5. The plate was incubated under normal conditions (5% CO2, and 95% air), for 96 hours at 37° C. 6. On day 6 (after 96 hr incubation), the plate was equilibrated to room temperature for approximately 30 minutes. A 100 μl of CellTiter-Glo Reagent was added in each well of the plate. Contents were mixed for 2 minutes on an orbital shaker to induce cell lysis. The plate was incubated at room temperature for 10 minutes to stabilize luminescent signal. Luminescence was recorded with Flexstation 3.
Unless noted otherwise, proliferation of control or compound treated H1299 cells was measured using CellTiter-Glo Luminescent assay following 96 hr incubation of the cells with and without test compounds. The AC50 values, shown in Table 3, were coded according to follows: A: <3 μM; B: 3-10 μM; C: 10-20 μM; or D: >20 μM.

[5] = system: 786-O (kidney); assay: as above; type: cell-based; conditions: Homo sapiens, 786-0, 1 mM glucose, 96 hr
[6] = biological target: PKM1 (Homo sapiens, UniProt P14618); assay: Isoform selectivity of pyruvate kinases; type: biochemical
[7] = Homo sapiens, NCI-H1299, 1 mM glucose

T1 sequence (P14618 whole entry): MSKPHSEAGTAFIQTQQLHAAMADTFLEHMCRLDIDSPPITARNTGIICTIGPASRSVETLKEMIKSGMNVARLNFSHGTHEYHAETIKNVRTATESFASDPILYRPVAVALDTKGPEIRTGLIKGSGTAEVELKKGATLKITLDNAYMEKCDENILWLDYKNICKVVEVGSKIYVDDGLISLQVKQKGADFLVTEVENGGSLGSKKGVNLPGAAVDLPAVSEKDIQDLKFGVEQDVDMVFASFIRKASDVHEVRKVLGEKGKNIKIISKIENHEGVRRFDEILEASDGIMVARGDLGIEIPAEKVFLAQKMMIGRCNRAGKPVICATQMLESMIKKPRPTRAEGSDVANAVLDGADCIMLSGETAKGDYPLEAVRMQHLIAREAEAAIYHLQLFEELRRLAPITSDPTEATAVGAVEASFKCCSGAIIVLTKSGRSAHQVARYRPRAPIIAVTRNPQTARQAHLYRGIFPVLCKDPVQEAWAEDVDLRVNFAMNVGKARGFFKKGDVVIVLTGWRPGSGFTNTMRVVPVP
Chain of PKM1 (P14618 1-531 isoform P14618-2): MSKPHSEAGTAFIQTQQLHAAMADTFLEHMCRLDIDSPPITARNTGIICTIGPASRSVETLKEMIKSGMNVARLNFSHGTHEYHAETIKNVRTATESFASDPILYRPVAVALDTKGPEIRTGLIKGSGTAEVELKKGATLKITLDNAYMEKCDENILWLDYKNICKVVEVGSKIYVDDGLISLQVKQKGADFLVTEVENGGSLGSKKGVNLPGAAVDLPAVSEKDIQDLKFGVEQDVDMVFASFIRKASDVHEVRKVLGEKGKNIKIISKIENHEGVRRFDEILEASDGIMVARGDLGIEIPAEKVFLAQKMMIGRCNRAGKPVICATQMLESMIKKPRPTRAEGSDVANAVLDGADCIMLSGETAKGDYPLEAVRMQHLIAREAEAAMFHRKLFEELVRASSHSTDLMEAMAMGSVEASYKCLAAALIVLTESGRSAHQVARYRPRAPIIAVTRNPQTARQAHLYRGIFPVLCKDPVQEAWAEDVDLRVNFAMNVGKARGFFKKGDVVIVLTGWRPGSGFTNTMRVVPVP

Row | SMILES | AC50 ([1]; Assay duration: 72 hours, Readout: CellTiter Glo) | IC50 [2] | AC50 [3] | Emax [3] | AC50 [4, 7] | AC50 ([1]; 96 hr, CellTiter-Glo) | AC50 [5] | AC50 [6] | AC50 ([4]; 5 mM glucose) | AC50 ([4]; Complete media)
1 | CCS(=O)(=O)Nc1ccc(C2=NN(C(C)=O)C(c3ccc(OC)cc3)C2)cc1 (racemic) [Compound 1A, N-(4-(1-acetyl-5-(4-methoxyphenyl)-4,5-dihydro-1H-pyrazol-3-yl)phenyl)ethanesulfonamide] | > 20 µM | 40 to 100 µM | ≤ 1 µM | 130 to 200% | 10 to 20 µM |  |  |  |  | 
2 | COc1ccc([C@@H]2CC(c3ccc(NS(=O)(=O)c4ccc(F)cc4)cc3)=NN2C(C)=O)cc1 [Compound 13A, (S)—N-(4-(1-acetyl-5-(4-methoxyphenyl)-4,5-dihydro-1H-pyrazol-3-yl)phenyl)-4-fluorobenzenesulfonamide] |  |  | ≤ 1 µM | 130 to 200% | 10 to 20 µM | 10 to 20 µM | < 3 µM | Not active | 10 to 20 µM | 10 to 20 µM

From US20120302609A1, “Pyrazolines for the Modulation of PKM2” (Dynamix Pharmaceuticals LTD., priority 2011, published 2012)
